The values that follow come from patent US11155814B2, “Methods for using DNA repair for cell engineering” (Caribou Biosciences, Inc., priority 2016, dated 2021).

In this test the test system is HEK293T cells. The test is described as follows: Compound treatment: DNA-PK inhibitor added after sgRNP nucleofection, DNA repair outcomes profiled by amplicon sequencing. The test is classed as cell-based, human. As for the experimental part: For compound treatments, sgRNP formation and nucleofection of 293T cells was performed as described above and cells were plated in 150 μl of culture medium. One hour after plating, 50 μl of media containing compound at 4× the final concentration were delivered to the cells. […] 48 hours after compound addition, cells were harvested and processed for genomic DNA preparation as described below.
K562 cells and HSCs were transferred to a thermal cycler compatible plate and pelleted by centrifugation. After the media was gently aspirated, 50 μl EpiBio QuickExtract DNA extraction solution (Epicentre, QE09050) was added into each well and the plate was incubated at 37° C. for 15 minutes. For HEK293 and HCT116 cells, media was gently aspirated from 96-well culture plates and cells were gently rinsed with 1×Phosphate Buffered Saline (PBS). 50 μl of EpiBio QuickExtract DNA extraction solution was added to each well and the plates were incubated at 37° C. for 15 minutes. For all cell types, molecular biology grade water (Teknova) was added to each well to attain a concentration of 1000 genomic copies/μl for subsequent PCR reactions. After addition of water, adherent cells were then transferred to thermal cycler compatible plates. All cell types were lysed (75° C. 10 min, 95° C. 5 min) and the lysate was stored at −80° C. […]
Following secondary alignment, reads were then categorized as “mutant” if they contained an indel within ±5 base pairs of the cut site; otherwise, they were categorized as “wild type”. Each mutant read was assigned to an “indel class” based on the indel type (insertion or deletion), start site, and length.
Heat maps were generated from the processed sequencing data as follows. […] The color intensities in the cells correspond to frequency as a fraction of mutant reads, with the color scale ranging from 0 to 0.2 (saturation). […]

Where [1] appears, read: as inhibitor concentration increased (1.56 μM-25 μM), 48 hours.

Turning to `O=c1cc(N2CCOCC2)oc2c(-c3cccc4c3sc3ccccc34)cccc12` [NU7441], under setting [1], the “mean frequency of a subset of large deletions (>3 base pairs) present in the DNA repair profiles” value is on record as “increased”; the “mean frequency of single base insertions and small deletions (<3 base pairs)” value is recorded as “decreased”. Besides, the “change of the DNA repair patterns at 12 different target sites compared with untreated samples” value (lowest concentration of inhibitor (1.56 μM), added one hour post nucleofection, harvested 48 hours) is given as “apparent”.
